# Data published in patent US11331375B2, “Compositions and methods for regulating leukocyte adhesion” (University of Virginia Patent Foundation, priority 2015, dated 2022).
# Tests used:
# [1] = test system: Panx1; assay: Western blot of pY198Panx1 in isolated mesenteric venules; assay type: cell-based, mouse; conditions: mesenteric venules perfused with TNFα 50 ng/mL 30 minutes
# Method: Following stimulation with TNFα (in vitro: 10 ng/mL; ex vivo: 50 ng/mL), confluent endothelial cell monolayers or isolated mesenteric venules were homogenized in ice cold Triton extraction buffer (50 mM Tris-HCL, 150 mM NaCl , 5 mM EDTA, 1% deoxycholate, 1% NP-40 and 1% Triton-X100 in phosphate buffered saline and pH adjusted to 7.4) containing protease and phosphatase inhibitors. Cell/Tissue lysates were incubated with rotation at 4° C. for 20 minutes to solubilize proteins, followed by centrifugation for 5 minutes at 13,000× g to pellet cell debris. Protein concentration was quantified using the BCA method. 15-20 μg of total protein was subjected to SDS gel electrophoresis using 4-12% Bis-Tris gels (Invitrogen) and transferred to nitrocellulose membranes for immunoblotting. Membranes were blocked for 1 hr at room temperature with LiCOR blocking solution, then incubated overnight at 4° C. with primary antibodies against pY416SFKs, (BD Biosciences; 1:1000) pY198Panx1 (Alpha Diagnostic Intl (ADI); 1:1000) and GAPDH (Sigma; 1:10,000) or an antibody against the intracellular loop of Panx1 (Panx1-IL) (ADI; 1:1000) (normalization controls). Membranes were then washed and incubated with LiCOR secondary antibodies (1:10,000) and visualized and quantitated using LiCOR Odyssey. […] Data are expressed as mean±SEM (n=3 independent experiments).
# [2] = test system: C57B1/6J mice; assay: Intravital microscopy of cremaster muscle for leukocyte adhesion and emigration; assay type: in vivo, mouse; conditions: topical TNFα on cremaster, after 120 minutes
# Method: Mice were prepared for intravital microscopy of the cremaster muscle as described previously^25. Briefly, mice were anesthetized with ketamine hydrochloride (150 mg/kg, IP) and xylazine (7.5 mg/kg, IP). The cremaster was isolated, laid over a viewing pedestal, superfused with bicarbonate-buffered saline. After 30 min equilibration, a venule with a wall shear rate (WSR) of ≥500/s, diameter between 20 μm and 40 μm, and the least number of adherent and emigrated leukocytes was chosen for further study. A 1 min baseline recording was made, after which superfusion was stopped, and 50 μl TNFα (1.7 ng/ml in 0.1% BSA) or vehicle control was added under a saran wrap cover every 30 min. 1 min recordings were made just prior to each addition, for 3 hrs. The TNFα was initially reconstituted in PBS at 3.4 ng/ml and 150 μl aliquots were frozen. An aliquot was mixed 1:1 with BBS containing 0.2% BSA at the time of the experiment. Leukocyte adhesion and emigration were determined by off-line analysis. Leukocytes were considered adherent if they stopped for at least 30 s (expressed as #/mm^2 vessel wall), and emigrated leukocytes were leukocytes identified in the interstitium (expressed as #cells/mm^2 tissue). Data are expressed as mean±SEM (n=6-7 independent animals/group).
# [3] = test system: THP-1 monocyte adhesion to HUVEC; assay: Static adhesion assay, THP-1 monocytes on HUVEC; assay type: cell-based, human; conditions: HUVEC monolayers activated with TNFα for 30 minutes
# Method: HUVECs were seeded on gelatin-coated glass coverslips in 6-well plates and grown to confluence. On the day of the experiment, cells were washed 2× with 1× PBS and incubated for 30 minutes in basal EGM supplemented with 1% BSA in the presence or absence of pharmacological inhibitors. During this incubation period, human THP-1 monocytes were loaded with Calcein-AM (Invitrogen; 5 μg/mL) for 30 minutes at 37° C. Cells were then pelleted by brief centrifugation and excess calcein was removed by washing THP-1 cells 3 times in 1× PBS. Next, HUVECs were stimulated with TNFα (10 ng/mL) for 30 minutes. Following EC activation, calcein-loaded THP-1 monocytes were added to EC monolayers and incubated for 20 minutes at 37° C. to allow THP-1 to contact ECs. Monolayers were then washed 3× with 1× PBS and fixed in ice cold 4% PFA. Following fixation, coverslips were removed from the 6-well plates and mounted on glass microscope slides with Prolong Gold anti-fade mountant with DAPI (Life Technologies). Fluorescent micrographs were obtained at 10×magnification and the number of adherent THP-1 monocytes/ECs was quantified in 5 randomized regions/slide. Data are expressed as mean±SEM (n=3 independent experiments).
# [4] = test system: HSaVEC; assay: In vitro ATP release assay (luciferin:luciferase), HSaVEC; assay type: cell-based, human; conditions: HSaVEC monolayers
# Method: In vitro Human arterial and venous ECs were seeded in 24-well plates pre-coated with 0.2% gelatin and grown to confluency. On the day of experiment, the media was removed from each well and cells were carefully washed twice with warm serum free basal EC medium supplemented with 1% BSA. Cells were then incubated in 300 μL of fresh basal EC medium supplemented with 1% BSA for 30 minutes at 37° C. to allow degradation of extracellular ATP released due to mechanical stimulation during washes. Endogenous ecto-nucleotidases were inhibited by incubating EC monolayers with 300 μM ARL 67156 (Tocris) for 30 minutes at 37° C. Cells were then stimulated with recombinant human TNFα (R&D Systems). For dose response experiments, ECs were incubated with 0.1, 1, 5, 10, 50, or 100 ng/mL recombinant TNFα for 30 minutes at 37° C. For time-course experiments, ECs were stimulated with 10 ng/mL recombinant TNFα for different time points up to 1 hour. In experiments where pharmacological inhibitors were employed, ECs were incubated with antagonists in parallel with ARL 67156 for 30 minutes. To inhibit TNFR1, ECs were incubated with the peptide antagonist of the receptor WP9QY (10 μM; Anaspec). […] Cx hemichannels were inhibited with lanthanum (La^3+; 100 μM; Sigma) and Panx1 channels were blocked with carbenoxolone (CBX; 50 μM; Sigma) and the inhibitory peptide ^10panx1 (200 μM; Genscript). […] The role of caspase activation was assessed by inhibition with the pan-caspase blocker Q-VD-OPh (100 μM; Sigma). Following stimulation with TNFα or vehicle, 150 μL of the cell supernatant was collected and immediately placed into pre-chilled 1.5 mL Eppendorf tubes on ice. All samples were centrifuged at 10,000×g for 5 minutes and 50 μL of each sample was transferred to a white, opaque 96-well plate. Using a FluoStar Omega luminometer, 50 μL of luciferin:luciferase reagent (ATP bioluminescence assay kit HSII; Roche) was injected into each well and luminescence was recorded following a 5s orbital mix. ATP concentration in each sample was calculated from a standard curve for all experiments. Data are presented as a % change in ATP release from baseline (i.e. unstimulated cells) and expressed as mean±SEM (n=5 independent experiments with triplicate measurements).
# [5] = test system: isolated mesenteric venules; assay: LDH release assay in perfused venules; assay type: cell-based, mouse; conditions: perfusion of TNFα
# Method: Isolated mesenteric venules were cannulated and perfused with recombinant mouse TNFα for 20 minutes followed by lysis buffer. Perfusate samples were collected as described above and LDH activity was assayed with the Cytotoxicity Detection Kit Plus (Roche) according to the manufacturer's protocol as an output for cell death. Data are expressed as mean±SEM (n=3 independent experiments).
substance,measurement,setting,value
TNFα,phosphorylation of Panx1,[1],promoted phosphorylation of Panx1
same,increase of leukocyte adhesion,[2],~2.5 fold
same,increase of leukocyte emigration,[2],~3.5 fold
same,increase of THP-1 monocyte adhesion,[3],~4 fold
same,ATP release on cytokine stimulation,[4],significant increase
same,cell death (LDH accumulation in perfusates),[5],did not induce cell death
